Data from PMC8551967 (Frontiers in Microbiology, 2021).
Non-standard residues stand in square brackets, D forms with d. Residues, ends and D or L forms follow the SMILES beside them. *: point of attachment. Leu(ol) = CC(C)C[C@H](N)CO; Octanoyl = CCCCCCCC(=O)*; Aib = CC(C)(N)C(=O)O

Legend:
[1] = test system: P. oryzae AP strain; assay type: cell-based, Pyricularia oryzae
[2] = test system: P. oryzae Guy11 strain; assay type: cell-based, Pyricularia oryzae
[3] = test system: P. oryzae I203 strain; assay type: cell-based, Pyricularia oryzae
[4] = test system: Pyricularia oryzae (strains AP, Guy11, I203 and IT10); settings: for inhibition of fungal growth compared to the untreated control: 96 h, 50 μM, pH 6.85
[5] = test system: P. oryzae (IT10 strain) conidia; assay type: cell-based, Pyricularia oryzae
[6] = test system: P. oryzae IT10 strain; assay type: cell-based, Pyricularia oryzae
[7] = test system: P. oryzae conidia; assay type: cell-based, Pyricularia oryzae; settings: pH 7
[8] = test system: Pyricularia oryzae IT10 strain on barley leaves (cv. Alora); settings: in vivo
[9] = test system: Pyricularia oryzae IT10 strain on rice (cv. Vialone Nano); settings: in vivo

Compound	inhibition of fungal growth (in words) [4]	morphology and germination of treated conidia [5]	reduction of blast lesion area in comparison with untreated barley leaves [8]	significance of lesion inhibition compared to the Control [8]	reduction in Disease Severity Index (DSI) [9]	inhibition of fungal growth compared to the untreated control [4]	also measured
Palmitoyl-His-Ala-Ala-His-Lys(ε-Ser)-Gly-COOH [Pep 19]	relatively little or no inhibition against one or two strains	germinated normally and did not show any morphological alteration					inhibition of AP strain (in words) [1]: did not inhibit; inhibition of Guy11 strain (in words) [2]: did not inhibit; inhibition of I203 strain (in words) [3]: did not inhibit; inhibition of IT10 strain (in words) [6]: partially inhibited
nOct-Aib-Gly-Leu-Aib-Lys-Aib-Leu-Aib-Gly-Ile-Lol [Pep 6]		germinated normally and did not show any morphological alteration					mycelium growth in the presence of the peptide versus untreated control [7]: grew better than the untreated control
CCCCCCCC(=O)NC(C)(C)C(=O)NCC(=O)N[C@@H](CC(C)C)C(=O)NC(C)(C)C(=O)N[C@@H](CCCCN)C(=O)N[C@@H](CCCCN)C(=O)N[C@@H](CC(C)C)C(=O)NC(C)(C)C(=O)NCC(=O)N[C@H](C(=O)N[C@H](CO)CC(C)C)[C@@H](C)CC [Pep 4]		important morphological changes	higher than 95%	Significant inhibition	65-70%	more than 90%	
nOct-Aib-Gly-Leu-Aib-Gly-Gly-Leu-Api-Gly-Ile-Lol [Pep 8Api]	relatively little or no inhibition against one or two strains	important morphological changes	higher than 95%	Significant inhibition	50-55%		
nOct-Aib-Gly-Leu-Aib-Gly-Gly-Leu-Aib-Gly-Ile-Lol [Trichogin, Trichogin GA IV, reference compound]			ineffective				activity of trichogin against P. oryzae in vitro [4]: ineffective
CCCCCCCC(=O)NC(C)(C)C(=O)N[C@@H](CCCCN)C(=O)N[C@@H](CC(C)C)C(=O)NC(C)(C)C(=O)NCC(=O)NCC(=O)N[C@@H](CC(C)C)C(=O)NC(C)(C)C(=O)NCC(=O)N[C@H](C(=O)N[C@@H](CC(C)C)C(N)=O)[C@@H](C)CC [Pep 2Rink] (Octanoyl-[Aib]KL[Aib]GGL[Aib]GIL-NH2)			about 92%	Significant inhibition	65-70%	more than 90%	representative lesions on barley leaves (in words) [8]: Almost no lesions; representative lesions on rice leaves (in words) [9]: reduced lesions
nOct-Aib-Gly-Leu-Aib-Gly-Lys-Leu-Aib-Gly-Ile-Lol [Pep 22]	relatively little or no inhibition against one or two strains		ineffective				
nOct-Aib—Lys-Lys-Leu-Aib-Gly-Ile-Leu-NH2 [Pep 4C2]	relatively little or no inhibition against one or two strains		about 75%	Significant inhibition	65-70%		representative lesions on rice leaves (in words) [9]: reduced lesions
nOct-Aib-Gly-Leu-Aib-Lys-Lys-Leu—Leu-NH2 [Pep 4C1]	relatively little or no inhibition against one or two strains		ineffective				
H-FKR[Aib]KK[Aib]FKK[Aib]WNWK-NH2 [Pep 12]	relatively little or no inhibition against one or two strains						
nOct-Aib-Gly-Leu-Aib-Lys-Gly-Leu-Aib-Gly-Ile-Lol [Pep 3]					inefficacy		
nOct-Aib-Lys-Leu-Aib-Gly-Lys-Leu-Aib-Gly-Ile-Lol [Pep 7]	relatively little or no inhibition against one or two strains		higher than 95%	Significant inhibition	65-70%		
CCCCCCCC(=O)NC(C)(C)C(=O)N[C@@H](CCCCN)C(=O)N[C@@H](CC(C)C)C(=O)NC(C)(C)C(=O)NCC(=O)NCC(=O)N[C@@H](CC(C)C)C(=O)NC(C)(C)C(=O)NCC(=O)N[C@H](C(=O)N[C@H](CO)CC(C)C)[C@@H](C)CC [Pep 2] (Octanoyl-[Aib]KL[Aib]GGL[Aib]GI[Leu(ol)])		important morphological changes	ineffective			more than 90%	
CCCCCCCC(=O)NC(C)(C)C(=O)N[C@@H](CCCCN)C(=O)N[C@@H](CC(C)C)C(=O)NC(C)(C)C(=O)N[C@@H](CCCCN)C(=O)NCC(=O)N[C@@H](CC(C)C)C(=O)NC(C)(C)C(=O)N[C@@H](CCCCN)C(=O)N[C@H](C(=O)N[C@H](CO)CC(C)C)[C@@H](C)CC [Pep 5] (Octanoyl-[Aib]KL[Aib]KGL[Aib]KI[Leu(ol)])		important morphological changes	higher than 95%	Significant inhibition	65-70%	more than 90%	representative lesions on rice leaves (in words) [9]: reduced lesions
CCCCCCCC(=O)NC(C)(C)C(=O)N[C@@H](CCCCN)C(=O)N[C@@H](CCCCN)C(=O)N[C@@H](CC(C)C)C(=O)NC(C)(C)C(=O)NCC(=O)N[C@H](C(=O)N[C@H](CO)CC(C)C)[C@@H](C)CC [Pep 4C] (Octanoyl-[Aib]KKL[Aib]GI[Leu(ol)])		important morphological changes	~70%	Significant inhibition		more than 90%	
